Earlier results in patent US11253533B1, “Water dissolvable macrocyclic lactone cyclodextrin complexes” (MOUNTAIN VALLEY MD INC, priority 2020, dated 2022).

Compound: CC[C@H](C)[C@H]1O[C@]2(CC[C@@H]1C)C[C@@H]1C[C@@H](C/C=C(\C)[C@@H](O[C@H]3C[C@H](OC)[C@@H](O[C@H]4C[C@H](OC)[C@@H](O)[C@H](C)O4)[C@H](C)O3)[C@@H](C)/C=C/C=C3\CO[C@@H]4[C@H](O)C(C)=C[C@@H](C(=O)O1)[C@]34O)O2 [Ivermectin, (1R,4S,5'S,6R,6′R,8R,10E,12S,13S,14E,16E,20R,21R,24S)-6′-[(2S)-butan-2-yl]-21,24-dihydroxy-12-[(2R,4S,5S,6S)-5-[(2S,4S,5S,6S)-5-hydroxy-4-methoxy-6-methyloxan-2-yl]oxy-4-methoxy-6-methyloxan-2-yl]oxy-5′,11,13,22-tetramethylspiro[3,7,19-trioxatetracyclo[15.6.1.14,8.020,24]pentacosa-10,14,16,22-tetraene-6,2′-oxane]-2-one]
- maximum concentration of ivermectin (FR 3042412, without an organic solvent): 2 mg per millileter of water
- solubility of Ivermectin (U.S. Pat. No. 4,389,397, with organic solvents, no cyclodextrin): 7%
- solubility in water (at 25 degrees Celsius): about 0.005 mg per ml
